According to patent US5227487A, “Certain tricyclic and pentacyclic-hetero nitrogen rhodol dyes” (Molecular Probes, Inc., priority 1990, dated 1993):
Values joined by “and” are separate entries in the source; they are usually repeats but may differ in a detail not shown here. Equal values may be shown once.

How the values were obtained:
[1] = Fluorescence emission spectra of rhodol dyes (uncorrected); format: physicochemical
Experimental: Uncorrected fluorescence data was obtained on a Perkin-Elmer Model 650-40 Fluorescence Spectrophotometer equipped with a Perkin-Elmer/Hitachi 057 X-Y recorder using a ten- to twentyfold dilution of the absorbance solutions. Fluorescence of the rhodol dyes was determined for the reactive dyes and for their conjugates with model compounds by dissolving the dye at a concentration above 1×10^-8 M in an appropriate solvent such as water, methanol or chloroform, followed by measurement of the fluorescence in a suitable instrument, such as a fluorescence spectrometer or fluorescence microscope.

[2] = Quantum yield relative to fluorescein; format: physicochemical; conditions: aqueous 50 mM phosphate buffer at pH 8.0-9.0; uncorrected
Experimental: (§1) An estimate of the quantum yield of the dyes relative to fluorescein (quantum yield=0.92 in 0.01M sodium hydroxide) was obtained by integrating the emission spectrum of the dye excited at the same wavelength and optical density as the standard. Approximate photostabilities of the rhodol derivatives, relative to fluorescein, were determined by measuring the time dependent decrease in fluorescence intensity, during continuous illumination, of equimolar solutions of the rhodol dyes and fluorescein.

[3] = pKa / pH dependence of absorption and emission; format: physicochemical
Experimental: | ^c In aqueous 50 mM phosphate buffer

[4] = Absorption spectra and extinction coefficients of rhodol dyes; format: physicochemical; conditions: aqueous 50 mM phosphate buffer at pH 8.0-9.0
Experimental: Stock solutions were prepared by accurately weighting and dissolving 5-10 mg samples of the compounds in 50 mM potassium phosphate buffer at pH 8.0. Absorbance solutions were prepared by further diluting the stock solution with 50 mM potassium phosphate buffer at pH 8.0.

[5] = Photobleaching / photostability relative to fluorescein; format: physicochemical; conditions: continuous illumination; equimolar solutions; 50 mM potassium phosphate pH 8.0 (FIG. 3)
Experimental: as §1

[6] = Absorption spectra and extinction coefficients of rhodol dyes; format: physicochemical; conditions: in methanol
[7] = background, cited from earlier work
[8] = cited from earlier work
[9] = background; cited from earlier work
[10] = background; cited from earlier work; remark: listed apart in the source
[11] = aqueous 50 mM phosphate buffer at pH 8.0-9.0

Row | Compound | Em Max [1, 11] | QY (quantum yield) [2] | Abs Max [4] | ε (extinction coefficient) [4] | Abs Max [6] | Em Max ([1]; in methanol) | other results
1 | CCNc1cc2oc3cc(=O)c(CCC(=O)O)cc-3c(-c3ccccc3C(=O)O)c2cc1C [Compound 17] | 534 nm | 0.65 | 510 nm | 79400 M⁻¹ cm⁻¹ | – | – | pKa ([3]; 50 mm phosphate buffer): 5.91
2 | O=C(O)c1ccc(C(=O)O)c(-c2c3cc(Cl)c(=O)cc-3oc3cc4c(cc23)CCCN4)c1 [Compound 24, 5-(and-6)-carboxy-2'-chloro-3'-hydroxy-1,2,3,4tetrahydropyridino[5,6-i]-spiro[isobenzofuran-1(3H),9'-[9H]xanthen-3-one] | 546 nm | 0.37 | 524 nm | – | – | – | pKa ([3]; 50 mm phosphate buffer): 4.50
3 | O=C(O)c1ccc(C(=O)O)c(-c2c3cc(Cl)c(=O)cc-3oc3c4c5c(cc23)CCCN5CCC4)c1 [Compound 28] | 572 nm | 0.31 | 547 nm | 74500 M⁻¹ cm⁻¹ | – | – | pKa ([3]; 50 mm phosphate buffer): 5.11
4 | NCCCCCNC(=O)c1ccc(C(=O)O)c(-c2c3cc(Cl)c(=O)cc-3oc3c4c5c(cc23)CCCN5CCC4)c1 [Compound 30] | – | – | – | 57300 M⁻¹ cm⁻¹ | 541 nm | 567 nm | –
5 | NCCNC(=O)c1ccc(C(=O)O)c(-c2c3cc(Cl)c(=O)cc-3oc3c4c5c(cc23)CCCN5CCC4)c1 [Compound 31] | – | – | – | – | 540 nm | 568 nm | –
6 | CCCCCCCCCCCCCCCCc1cc2c(-c3cc(C(=O)O)ccc3C(=O)O)c3cc4c5c(c3oc-2cc1=O)CCCN5CCC4 [Compound 34] | 572 nm | – | 547 nm | – | 531 nm | 562 nm | ε (extinction coefficient) [6]: 84400 M⁻¹ cm⁻¹
7 | O=C(O)CCc1cc2c(cc1O)Oc1c(cc3c4c1CCCN4CCC3)C21OC(=O)c2ccccc21 (stereo not drawn) [Compound 39, 3'-hydroxy-2,3,6,7-tetrahydro-1H, 5H-quinolizino[1,9-hi]-spiro[isobenzofuran-1(3H),9'-[9H]xanthen-3-one-2'-(3-propionic acid)] | 562 nm | 0.41 | 541 nm | 58200 M⁻¹ cm⁻¹ | – | – | pKa ([3]; 50 mm phosphate buffer): 6.63
8 | C=CC(=O)NCCCCCNC(=O)CCc1cc2c(-c3ccccc3C(=O)O)c3cc4c5c(c3oc-2cc1=O)CCCN5CCC4 [Compound 42] | 571 nm | – | 544 nm | – | – | – | –
9 | [N-]=[N+]=Nc1ccc(C(=O)NCCCCCNC(=O)CCc2cc3c(cc2O)Oc2c(cc4c5c2CCCN5CCC4)C32OC(=O)c3ccccc32)cc1 (stereo not drawn) [Compound 43] | 572 nm | – | 545 nm | – | – | – | –
10 | O=C(CI)NCCCCCNC(=O)CCc1cc2c(-c3ccccc3C(=O)O)c3cc4c5c(c3oc-2cc1=O)CCCN5CCC4 [Compound 44] | 572 nm | – | 544 nm | – | – | – | –
11 | O=C(CCc1cc2c(-c3ccccc3C(=O)O)c3cc4c5c(c3oc-2cc1=O)CCCN5CCC4)NCCCCCNC(=O)CN1C(=O)C=CC1=O [Compound 45] | 573 nm | – | 544 nm | – | – | – | –
12 | O=C1OC2(c3ccc(O)cc3Oc3cc(O)ccc32)c2ccccc21 [Fluorescein] | 514 nm | 0.92 | 490 nm | 75000 M⁻¹ cm⁻¹ | – | – | absorption intensity at 514 nm relative to maximum at 492 nm ([7]; 514 nm): less than 10%; absorptivity at peak ([7]; at absorption peak): 75,000 cm^-1 M^-1; absorption maximum [7]: 492 nm and ~490 nm; pKa ([3]; aqueous 50 mM phosphate buffer): 6.4; quantum yield of the standard ([8]; in 0.01M sodium hydroxide): 0.92; pH sensitivity [9]: pH dependent absorption spectrum
13 | CN(C)c1ccc2c(-c3ccccc3C(=O)[O-])c3ccc(N(C)C)cc3[o+]c2c1 [Tetramethylrhodamine] | – | – | – | – | – | – | photostability [10]: relatively photostable; quantum yield in alcohol ([8]; background, in alcohol): above 0.90; quantum yield in water ([8]; background, in water): approximately 0.23; pH sensitivity [9]: pH insensitive

Further lines, with some results ahead:

Row | Em Max [1, 11] | QY (quantum yield) [2] | Abs Max [4] | ε (extinction coefficient) [4] | Abs Max [6] | Em Max ([1]; in methanol) | Compound | other results
14 | 517 nm | 0.81 | 492 nm | 59900 M⁻¹ cm⁻¹ | – | – | 5(and -6)-carboxy-3'-hydroxy-6'-amino-spiro[isobenzofuran-1(3H,9'-[9H]xanthen-3- one [Compound 1] | pKa ([3]; aqueous 50 mM phosphate buffer): 5.59; pH dependence of absorption and emission ([3]; aqueous solution, between pH 6 and 10, compared with fluorescein (FIG. 4)): less significant pH dependence; photostability / rate of photobleaching relative to fluorescein [5]: superior photostability
15 | 535 nm | 0.81 | 510 nm | 54800 M⁻¹ cm⁻¹ | – | – | 5-(and -6)-carboxy-2',7'-dimethyl-3'-hydroxy-6'-N-ethylamino-spiro[isobenzofuran- 1(3H),9'-[9H]xanthen-3-one [Compound 12] | pKa ([3]; aqueous 50 mM phosphate buffer): 5.82
16 | 573 nm | – | 542 nm | – | – | – | NNC(=O)CCc1cc2c(-c3ccccc3C(=O)O)c3cc4c5c(c3oc-2cc1=O)CCCN5CCC4 [Compound 49] | –
17 | 572 nm | – | 543 nm | – | – | – | NCCCCCNC(=O)CCc1cc2c(cc1O)Oc1c(cc3c4c1CCCN4CCC3)C21OC(=O)c2ccccc21 (stereo not drawn) [Compound 50] | –
18 | – | – | – | – | 563 nm | 578 nm | O=c1cc2oc3c4c5c(cc3c(CCl)c-2cc1Cl)CCCN5CCC4 [Compound 51] | –
19 | 603 nm | – | 558 nm | – | – | – | CCc1cc2c(C(=O)O)c3cc4c5c(c3oc-2cc1=O)CCCN5CCC4 [Compound 52] | –
20 | 562 nm | 0.44 | 538 nm | 69500 M⁻¹ cm⁻¹ | 531 nm | 555 nm | O=C(O)CCc1cc2cc3cc4c5c(c3oc-2cc1=O)CCCN5CCC4 [Compound 54] | ε (extinction coefficient) [6]: 81400 M⁻¹ cm⁻¹
21 | 562 nm | – | 538 nm | 64100 M⁻¹ cm⁻¹ | 532 nm | 556 nm | O=C(O)CCCCc1cc2cc3cc4c5c(c3oc-2cc1=O)CCCN5CCC4 [Compound 55] | ε (extinction coefficient) [6]: 88700 M⁻¹ cm⁻¹
22 | – | – | – | – | 532 nm | 556 nm | O=C(O)CCCCCCCCCCCc1cc2cc3cc4c5c(c3oc-2cc1=O)CCCN5CCC4 [Compound 56] | ε (extinction coefficient) [6]: 84400 M⁻¹ cm⁻¹
23 | 635 nm | – | 602 nm | – | 593 nm | 633 nm | O=C(O)CCc1cc2c(C(F)(F)F)c3cc4c5c(c3oc-2cc1=O)CCCN5CCC4 [Compound 57] | –
24 | 664 nm | – | 640 nm | – | – | – | N#Cc1c2cc(CCC(=O)O)c(=O)cc-2oc2c3c4c(cc12)CCCN4CCC3 [Compound 58] | –
25 | 514 nm | 0.78 | 491 nm | 75000 M⁻¹ cm⁻¹ | – | – | Carboxyfluorescein [reference compound] | pKa ([3]; 50 mm phosphate buffer): 6.4
26 | 574 nm | 0.23 | 547 nm | 77000 M⁻¹ cm⁻¹ | – | – | Carboxytetramethylrhodamine [reference compound] | –
